The source made the active and inactive calls. No cut-off for these calls is given here.
What was measured:
[1] = target: T1, Histone deacetylase 8 (Homo sapiens) (UniProt Q9BY41); experiment: Inhibition of HDAC8 in human Jurkat T cells assessed as increase in H3K27 acetylation at 10 uM after 6 hrs by Western blot analysis; format: cell-based
T1 sequence (whole entry): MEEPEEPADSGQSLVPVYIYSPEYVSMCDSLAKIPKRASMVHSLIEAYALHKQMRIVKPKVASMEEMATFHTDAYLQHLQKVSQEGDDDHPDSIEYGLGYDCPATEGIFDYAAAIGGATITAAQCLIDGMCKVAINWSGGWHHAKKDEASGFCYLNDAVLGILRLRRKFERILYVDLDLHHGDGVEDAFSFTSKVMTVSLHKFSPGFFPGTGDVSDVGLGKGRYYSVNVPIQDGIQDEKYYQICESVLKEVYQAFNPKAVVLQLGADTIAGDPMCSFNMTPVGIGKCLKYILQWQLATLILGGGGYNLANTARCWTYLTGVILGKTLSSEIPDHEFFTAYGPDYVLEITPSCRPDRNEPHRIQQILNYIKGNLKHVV

[2] = target: T2, Histone deacetylase 2 (Homo sapiens, UniProt Q92769); experiment: Inhibition of recombinant human HDAC2 using p53 (Ac-RHKK(Acetyl)-AMC) as substrate preincubated for 5 mins followed by substrate addition and measured after 30 mins by fluorescence based analysis
[3] = test system: HEK293; experiment: Cytotoxicity against HEK293 cells assessed as reduction in cell viability at 50 uM after 24 hrs by alamar blue assay; format: toxicity, cell-based; conditions: human, hek293, 24 h
[4] = target: T3, Histone deacetylase 1 (Homo sapiens, UniProt Q13547); experiment: Inhibition of recombinant human HDAC1 using p53 (Ac-RHKK(Acetyl)-AMC) as substrate preincubated for 5 mins followed by substrate addition and measured after 90 mins by fluorescence based analysis
[5] = target: Histone deacetylase 3 (Homo sapiens, UniProt O15379); experiment: Inhibition of recombinant human HDAC3 using p53 (Ac-RHKK(Acetyl)-AMC) as substrate preincubated for 5 mins followed by substrate addition and measured after 30 mins by fluorescence based analysis
[6] = target: T1, Histone deacetylase 8 (Homo sapiens); experiment: Inhibition of recombinant human HDAC8 at 1 uM using (Abz-SRGK(thio-TFA)FFRR-NH2) as substrate preincubated for 5 mins followed by substrate addition by fluorescence based analysis relative to control
[7] = target: T2, Histone deacetylase 2; experiment: Inhibition of recombinant human HDAC2 at 10 uM using p53 (Ac-RHKK(Acetyl)-AMC) as substrate preincubated for 5 mins followed by substrate addition and measured after 30 mins by fluorescence based analysis relative to control; conditions: time 35.0 min
[8] = target: T2, Histone deacetylase 2; experiment: Inhibition of recombinant human HDAC2 at 1 uM using p53 (Ac-RHKK(Acetyl)-AMC) as substrate preincubated for 5 mins followed by substrate addition and measured after 30 mins by fluorescence based analysis relative to control; conditions: time 35.0 min
[9] = target: T1, Histone deacetylase 8 (Homo sapiens); experiment: Inhibition of recombinant human HDAC8 at 10 uM using (Abz-SRGK(thio-TFA)FFRR-NH2) as substrate preincubated for 5 mins followed by substrate addition by fluorescence based analysis relative to control
[10] = target: T3, Histone deacetylase 1; experiment: Inhibition of recombinant human HDAC1 at 1 uM using p53 (Ac-RHKK(Acetyl)-AMC) as substrate preincubated for 5 mins followed by substrate addition and measured after 90 mins by fluorescence based analysis relative to control; conditions: time 95.0 min
[11] = target: T3, Histone deacetylase 1; experiment: Inhibition of recombinant human HDAC1 at 10 uM using p53 (Ac-RHKK(Acetyl)-AMC) as substrate preincubated for 5 mins followed by substrate addition and measured after 90 mins by fluorescence based analysis relative to control; conditions: time 95.0 min
[12] = target: T4, Histone deacetylase 8 (Homo sapiens, UniProt Q9BY41); experiment: Inhibition of recombinant human HDAC8 using (Abz-SRGK(thio-TFA)FFRR-NH2) as substrate preincubated for 5 mins followed by substrate addition by fluorescence based analysis
T4 sequence (Q9BY41 whole entry): T1 sequence (whole entry)

[13] = target: Histone deacetylase 4 (Homo sapiens, UniProt P56524); experiment: Inhibition of HDAC4 (unknown origin)
[14] = target: T5, Protein deacetylase HDAC6 (Homo sapiens, UniProt Q9UBN7); experiment: Inhibition of recombinant human HDAC6 (unknown origin)
T5 sequence (Q9UBN7 whole entry): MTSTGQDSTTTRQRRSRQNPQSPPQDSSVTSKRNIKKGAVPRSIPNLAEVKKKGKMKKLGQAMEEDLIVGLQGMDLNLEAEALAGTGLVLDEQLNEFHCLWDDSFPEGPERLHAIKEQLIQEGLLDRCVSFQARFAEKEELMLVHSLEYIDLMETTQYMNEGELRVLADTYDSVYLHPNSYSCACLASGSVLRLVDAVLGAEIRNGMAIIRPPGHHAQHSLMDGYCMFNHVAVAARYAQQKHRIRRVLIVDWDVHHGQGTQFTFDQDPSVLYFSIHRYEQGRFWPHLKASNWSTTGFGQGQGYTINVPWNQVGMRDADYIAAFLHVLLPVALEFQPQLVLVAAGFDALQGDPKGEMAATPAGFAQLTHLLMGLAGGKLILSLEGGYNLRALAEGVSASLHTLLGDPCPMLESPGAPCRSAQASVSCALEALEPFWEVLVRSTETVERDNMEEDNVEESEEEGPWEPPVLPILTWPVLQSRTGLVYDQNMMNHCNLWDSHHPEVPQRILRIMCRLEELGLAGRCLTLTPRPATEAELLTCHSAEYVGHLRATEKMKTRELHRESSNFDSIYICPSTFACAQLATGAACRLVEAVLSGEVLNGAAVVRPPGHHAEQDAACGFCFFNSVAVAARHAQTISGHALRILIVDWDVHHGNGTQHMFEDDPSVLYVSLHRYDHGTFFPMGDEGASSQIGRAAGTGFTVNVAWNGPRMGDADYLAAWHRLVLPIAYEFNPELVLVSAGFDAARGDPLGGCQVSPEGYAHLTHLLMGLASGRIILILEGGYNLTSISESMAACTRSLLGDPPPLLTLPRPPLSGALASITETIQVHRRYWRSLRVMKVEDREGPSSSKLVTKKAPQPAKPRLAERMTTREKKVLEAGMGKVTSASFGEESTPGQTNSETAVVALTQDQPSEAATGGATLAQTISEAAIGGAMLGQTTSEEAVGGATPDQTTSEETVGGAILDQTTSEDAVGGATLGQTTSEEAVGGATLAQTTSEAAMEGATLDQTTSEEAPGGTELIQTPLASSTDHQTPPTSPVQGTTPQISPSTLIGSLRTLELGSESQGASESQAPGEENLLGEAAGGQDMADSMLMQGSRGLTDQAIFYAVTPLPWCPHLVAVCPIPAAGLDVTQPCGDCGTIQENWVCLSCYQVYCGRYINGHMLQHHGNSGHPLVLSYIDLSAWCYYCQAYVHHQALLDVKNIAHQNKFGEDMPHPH

[15] = target: T6, Histone deacetylase 11 (Homo sapiens, UniProt Q96DB2); experiment: Inhibition of recombinant human HDAC11 preincubated for 10 mins followed by substrate addition by fluorescence based analysis
T6 sequence (Q96DB2 whole entry): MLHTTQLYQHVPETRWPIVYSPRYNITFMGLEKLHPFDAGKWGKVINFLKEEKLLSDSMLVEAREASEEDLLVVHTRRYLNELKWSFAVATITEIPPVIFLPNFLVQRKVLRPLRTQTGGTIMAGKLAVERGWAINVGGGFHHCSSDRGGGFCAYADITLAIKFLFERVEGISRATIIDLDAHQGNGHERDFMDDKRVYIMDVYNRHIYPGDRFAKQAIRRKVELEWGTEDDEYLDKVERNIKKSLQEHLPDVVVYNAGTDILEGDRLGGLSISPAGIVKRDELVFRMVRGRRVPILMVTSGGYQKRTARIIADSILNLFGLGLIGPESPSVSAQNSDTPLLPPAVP

Histone deacetylase 3, sequence (O15379 whole entry): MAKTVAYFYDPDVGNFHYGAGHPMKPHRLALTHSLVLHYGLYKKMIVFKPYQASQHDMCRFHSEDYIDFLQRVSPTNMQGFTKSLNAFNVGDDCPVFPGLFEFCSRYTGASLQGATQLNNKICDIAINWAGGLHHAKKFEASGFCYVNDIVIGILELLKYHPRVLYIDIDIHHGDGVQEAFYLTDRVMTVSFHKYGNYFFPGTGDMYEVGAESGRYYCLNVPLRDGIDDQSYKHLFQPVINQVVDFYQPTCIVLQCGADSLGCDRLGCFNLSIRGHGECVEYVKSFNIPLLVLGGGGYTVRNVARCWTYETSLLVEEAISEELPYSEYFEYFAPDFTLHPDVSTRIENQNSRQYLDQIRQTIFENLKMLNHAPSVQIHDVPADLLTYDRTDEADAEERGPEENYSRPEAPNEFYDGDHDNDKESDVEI
T3 sequence (Q13547 whole entry): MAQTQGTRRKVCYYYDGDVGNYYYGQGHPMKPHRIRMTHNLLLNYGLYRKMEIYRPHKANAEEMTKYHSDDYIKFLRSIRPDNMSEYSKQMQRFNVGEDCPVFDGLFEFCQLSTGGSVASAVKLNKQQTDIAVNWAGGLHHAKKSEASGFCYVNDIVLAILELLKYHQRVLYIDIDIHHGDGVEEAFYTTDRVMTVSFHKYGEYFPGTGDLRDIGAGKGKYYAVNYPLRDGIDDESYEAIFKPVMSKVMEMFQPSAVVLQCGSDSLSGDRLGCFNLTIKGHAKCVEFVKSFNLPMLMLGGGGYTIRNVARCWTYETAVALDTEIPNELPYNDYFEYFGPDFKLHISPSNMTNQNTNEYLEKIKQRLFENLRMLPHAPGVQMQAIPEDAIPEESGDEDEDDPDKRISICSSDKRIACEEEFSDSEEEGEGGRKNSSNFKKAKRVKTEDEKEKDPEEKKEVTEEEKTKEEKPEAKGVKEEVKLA
T2 sequence (Q92769 whole entry): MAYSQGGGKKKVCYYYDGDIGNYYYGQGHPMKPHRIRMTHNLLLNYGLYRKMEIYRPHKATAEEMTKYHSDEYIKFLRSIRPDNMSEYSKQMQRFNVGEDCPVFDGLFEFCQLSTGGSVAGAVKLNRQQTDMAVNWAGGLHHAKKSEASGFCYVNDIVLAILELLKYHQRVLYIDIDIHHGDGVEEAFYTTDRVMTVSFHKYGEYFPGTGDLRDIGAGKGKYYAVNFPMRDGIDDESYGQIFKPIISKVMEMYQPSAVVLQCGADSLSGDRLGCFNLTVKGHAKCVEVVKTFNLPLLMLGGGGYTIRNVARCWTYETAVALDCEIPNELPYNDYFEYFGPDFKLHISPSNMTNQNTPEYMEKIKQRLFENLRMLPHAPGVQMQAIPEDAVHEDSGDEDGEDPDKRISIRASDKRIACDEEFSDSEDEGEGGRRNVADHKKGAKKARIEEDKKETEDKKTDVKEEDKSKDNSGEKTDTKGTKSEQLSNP
Histone deacetylase 4, sequence (P56524 whole entry): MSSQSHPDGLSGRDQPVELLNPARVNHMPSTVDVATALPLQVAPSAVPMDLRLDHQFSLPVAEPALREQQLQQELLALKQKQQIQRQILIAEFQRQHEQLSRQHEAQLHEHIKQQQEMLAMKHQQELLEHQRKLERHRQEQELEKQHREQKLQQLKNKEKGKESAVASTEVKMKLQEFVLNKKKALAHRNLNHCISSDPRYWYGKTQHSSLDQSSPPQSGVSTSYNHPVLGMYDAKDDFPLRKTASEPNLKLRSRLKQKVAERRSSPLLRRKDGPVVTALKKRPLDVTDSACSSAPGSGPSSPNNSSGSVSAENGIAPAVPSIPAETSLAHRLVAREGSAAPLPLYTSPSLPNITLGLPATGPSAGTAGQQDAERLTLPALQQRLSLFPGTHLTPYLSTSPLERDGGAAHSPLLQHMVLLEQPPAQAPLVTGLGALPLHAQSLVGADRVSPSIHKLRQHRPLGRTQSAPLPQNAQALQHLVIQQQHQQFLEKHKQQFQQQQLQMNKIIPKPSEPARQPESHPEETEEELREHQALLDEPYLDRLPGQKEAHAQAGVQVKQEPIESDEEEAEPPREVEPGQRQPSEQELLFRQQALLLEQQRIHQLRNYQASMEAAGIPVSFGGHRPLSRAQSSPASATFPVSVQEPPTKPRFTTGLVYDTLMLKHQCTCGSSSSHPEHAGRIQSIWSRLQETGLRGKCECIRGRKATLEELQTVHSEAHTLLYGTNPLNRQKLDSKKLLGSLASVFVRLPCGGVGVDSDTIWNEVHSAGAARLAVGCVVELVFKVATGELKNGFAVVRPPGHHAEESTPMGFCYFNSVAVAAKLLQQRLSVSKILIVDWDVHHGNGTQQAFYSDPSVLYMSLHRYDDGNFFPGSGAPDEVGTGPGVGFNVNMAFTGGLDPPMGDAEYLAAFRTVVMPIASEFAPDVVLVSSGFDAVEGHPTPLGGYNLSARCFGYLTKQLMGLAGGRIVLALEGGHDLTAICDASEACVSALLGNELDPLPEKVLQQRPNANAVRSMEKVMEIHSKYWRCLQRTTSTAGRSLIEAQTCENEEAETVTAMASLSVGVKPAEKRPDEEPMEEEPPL

Row | SMILES | inhibition [1] | IC50 [2] | IC50 [4] | IC50 [5] | inhibition [6] | inhibition [7] | inhibition [8] | inhibition [9] | inhibition [10] | inhibition [11] | IC50 [12] | IC50 [13] | IC50 [14] | IC50 [15] | Cell viability [3]
1 | CCCCNNC(=O)c1cnc(NCc2ccccc2)nc1 |  |  |  | 0.2 µM | 66% | 93% | 46% | 94% | 61% | 85% |  |  |  |  | 88.9%
2 | CCCCCCNNC(=O)c1cnc(N2CCN(CCc3c[nH]c4ccccc34)CC2)nc1 |  | 1.4 µM | 0.86 µM | 1 µM |  |  |  |  |  |  | 0.013 µM |  |  |  | 47.1%
3 | CCCCCCNNC(=O)c1cnc(N2CCN(CCc3cn(C)c4ccccc34)CC2)nc1 | Active | 1.2 µM | 0.4 µM | 1.4 µM |  |  |  |  |  |  | 0.023 µM |  |  |  | 31.8%
4 | CCCNNC(=O)c1cnc(N2CCN(C)CC2)nc1 |  | 2.4 µM | 0.59 µM | 0.12 µM |  |  |  |  |  |  | 0.25 µM |  |  |  | 93.6%
5 | CCCCCCNNC(=O)c1cnc(NCc2ccc(CNC(C)=O)cc2)nc1 | Active | 4.5 µM | 0.96 µM | 8.5 µM |  |  |  |  |  |  | 0.019 µM |  |  |  | 79.4%
6 | CCCCCCNNC(=O)c1cnc(NCc2cccc3ccccc23)nc1 | Active | > 20 µM | 8.3 µM | > 20 µM |  |  |  |  |  |  | 0.063 µM |  |  |  | 65.7%
7 | CCCCCCNNC(=O)c1cnc(NCc2ccccc2)nc1 |  | 3.2 µM | 0.56 µM | 3 µM |  |  |  |  |  |  | 0.016 µM |  |  |  | 88.4%
8 | CCCCCCNNC(=O)c1ccc(CNC(C)=O)cc1 |  | 12 µM | 48 µM | > 20 µM |  |  |  |  |  |  | 0.023 µM |  |  |  | 113.3%
9 | CCCCNNC(=O)c1ccc(-c2ccc(CNC(C)=O)cc2)cc1 |  | 1.1 µM | 0.62 µM | 0.35 µM |  |  |  |  |  |  | 0.36 µM |  |  |  | 80.1%
10 | CCCCCNNC(=O)c1ccc(-c2ccc(CNC(C)=O)cc2)cc1 |  | 2 µM | 0.66 µM | 1.5 µM |  |  |  |  |  |  | 0.35 µM |  |  |  | 90.8%
11 | CCCCCCNNC(=O)c1cnc(N2CCN(Cc3cn(C)c4ccccc34)CC2)nc1 | Active | 0.33 µM | 0.17 µM | 0.3 µM |  |  |  |  |  |  | 0.014 µM |  |  |  | 1.6%
12 | CCCCCCNNC(=O)c1cccc(NCc2ccccc2)c1 |  | > 20 µM | > 20 µM | > 20 µM |  |  |  |  |  |  | 0.046 µM | > 20 µM | > 20 µM | 8.6 µM | 71.2%
13 | CCCNNC(=O)c1ccc(CNC(C)=O)cc1 |  | 5.5 µM | 1.6 µM | 1.6 µM |  |  |  |  |  |  |  |  |  |  | 81.2%
14 | CCCCCCNNC(=O)c1cnc(NCCc2ccccc2)nc1 | Active | 12 µM | 2.2 µM | 7.2 µM |  |  |  |  |  |  | 0.028 µM |  |  |  | 90.1%

Now those with a lower IC50 [5], led by results:

Row | inhibition [1] | IC50 [2] | IC50 [4] | IC50 [5] | inhibition [6] | inhibition [7] | inhibition [8] | inhibition [9] | inhibition [10] | inhibition [11] | IC50 [12] | IC50 [13] | IC50 [14] | IC50 [15] | SMILES | Cell viability [3]
15 | Active | 0.92 µM | 0.29 µM | 0.11 µM |  |  |  |  |  |  |  |  |  |  | CCCNNC(=O)c1cnc(NCc2ccc(CNC(C)=O)cc2)nc1 | 93.1%
16 |  |  |  | 0.06 µM | 43% | 92% | 55% | 87% | 71% | 89% |  |  |  |  | CCCNNC(=O)c1cnc(NCc2ccccc2Cl)nc1 | 80.7%
17 |  | 0.7 µM | 0.25 µM | 0.0432 µM |  |  |  |  |  |  | 1 µM | > 20 µM | > 20 µM | 2 µM | CCCNNC(=O)c1cnc(NCc2ccccc2)nc1 | 80.9%
18 |  |  |  | 0.037 µM | 62% | 96% | 61% | 88% | 54% | 92% |  |  |  |  | CCCNNC(=O)c1cnc(NCc2ccc(Cl)cc2)nc1 | 83.2%
19 |  |  |  | 0.058 µM | 33% |  |  | 83% | 66% | 88% |  |  |  |  | CCCNNC(=O)c1cnc(NCc2cc(Cl)ccc2Cl)nc1 | 78.2%
20 |  |  |  | 0.081 µM | 36% | 93% | 46% | 83% | 53% | 91% |  |  |  |  | CCCNNC(=O)c1cnc(NCc2cccc3ccccc23)nc1 | 78.9%
21 | Active | 0.31 µM | 0.17 µM | 0.1 µM |  |  |  |  |  |  | 0.0059 µM | > 20 µM | > 20 µM | 0.041 µM | CCCCCCNNC(=O)c1cnc(N2CCN(Cc3c[nH]c4ccccc34)CC2)nc1 | 2.18%

From ChEMBL document CHEMBL5150060 (J Med Chem, 2022)
